According to US6465457B1 (priority 1991, dated 2002):

Columns and labels:
Assay type in all cases: in vivo
[1] = tested on: Phytophthora infestans (Tomatoes); conditions: 100 ppm a.i. foliar spray or root drench (approx. 40 ppm in dry soil), one or two days before inoculation
[2] = tested on: Erysiphe graminis tritici (Wheat); assay: Foliar fungal disease test on plants: Erysiphe graminis tritici (Wheat); conditions: 100 ppm a.i. foliar spray or root drench (approx. 40 ppm in dry soil); plants inoculated 24 hours before treatment
Experimental: (§1) The compounds were tested against a variety of foliar fungal diseases of plants. The technique employed was as follows.
(§2) The plants were grown in John Innes Potting Compost (No 1 or 2) in 4 cm diameter minipots. The test compounds were formulated either by bead milling with aqueous DISPERSOL T or as a solution in acetone or acetone/ethanol which was diluted to the required concentration immediately before use. […] The sprays were applied to maximum retention and the root drenches to a final concentration equivalent to approximately 40 ppm a.i. in dry soil. TWEEN 20 was added to give a final concentration of 0.05% when the sprays were applied to cereals.
(§3) For most of the tests the compounds were applied to the soil (roots) or to the foliage (by spraying) one or two days before the plant was inoculated with the disease. An exception was the test on Erysiphe graminis in which the plants were inoculated 24 hours before treatment. Foliar pathogens were applied by spray as zoosporangial suspensions onto the leaves of test plants. After inoculation, the plants were put into an appropriate environment to allow infection to proceed and then incubated until the disease was ready for assessment. The period between inoculation and assessment varied from four to fourteen days according to the disease and environment.
(§4) The disease level present (i.e. leaf area covered by actively sporulating disease) on each of the treated plants was recorded using the following assessment scale:
(§5) Each assessment was then expressed as a percentage of the level of disease present on the untreated control plants. This calculated value is referred to as a POCO (Percentage of Control) value. An example of a typical calculation is as follows:
(§6) Disease level on untreated control=90
(§7) Disese level on treated plant=30 [formula]
(§8) This calculated POCO value is then rounded to the nearest of the values in the 9-point assessment scale shown above. In this particular example, the POCO value would be rounded to 30. If the calculated POCO falls exactly mid-way between two of the points, it is rounded to the lower of the two values.

[3] = tested on: Plasmopara viticola (Vines); assay: Foliar fungal disease test on plants: Plasmopara viticola (Vines); conditions: 100 ppm a.i. foliar spray or root drench (approx. 40 ppm in dry soil), one or two days before inoculation
Experimental: as §1, §2, §3, §4, §5, §6, §7, §8

[4] = tested on: Venturia inaequalis (Apples); assay: Foliar fungal disease test on plants: Venturia inaequalis (Apples); conditions: 100 ppm a.i. foliar spray or root drench (approx. 40 ppm in dry soil), one or two days before inoculation
Experimental: as §1, §2, §3, §4, §5, §6, §7, §8

[5] = tested on: Pyricularia oryzae (Rice); conditions: 100 ppm a.i. foliar spray or root drench (approx. 40 ppm in dry soil), one or two days before inoculation
[6] = tested on: Septoria nodorum (Wheat); assay: Foliar fungal disease test on plants: Septoria nodorum (Wheat); conditions: 100 ppm a.i. foliar spray or root drench (approx. 40 ppm in dry soil), one or two days before inoculation
Experimental: as §1, §2, §3, §4, §5, §6, §7, §8

[7] = tested on: Thanatephorus cucumeries (Rice); assay: Foliar fungal disease test on plants: Thanatephorus cucumeries (Rice); conditions: 100 ppm a.i. foliar spray or root drench (approx. 40 ppm in dry soil), one or two days before inoculation
Experimental: as §1, §2, §3, §4, §5, §6, §7, §8

SMILES | POCO (Percentage of Control) disease level, Phytophthora infestans (Tomatoes) [1] | POCO (Percentage of Control) disease level, Erysiphe graminis tritici (Wheat) [2] | POCO (Percentage of Control) disease level, Plasmopara viticola (Vines) [3] | POCO (Percentage of Control) disease level, Venturia inaequalis (Apples) [4] | POCO (Percentage of Control) disease level, Pyricularia oryzae (Rice) [5] | POCO (Percentage of Control) disease level, Septoria nodorum (Wheat) [6] | POCO (Percentage of Control) disease level, Thanatephorus cucumeries (Rice) [7]
COC=C(C(=O)OC)c1ccccc1COC(=O)N(C)c1cccc([N+](=O)[O-])c1 [6 (2)] | 10 (10 = 5.1-10% disease present) | 0 (0 = 0% disease present) | 0 (0 = 0% disease present) | 0 (0 = 0% disease present) | 0 (0 = 0% disease present) | 0 (0 = 0% disease present) | 30 (30 = 20.1-30% disease present)
CCN(C(=O)OCc1ccccc1C(=COC)C(=O)OC)c1cccc([N+](=O)[O-])c1 [6 (3)] | 10 (10 = 5.1-10% disease present) | 0 (0 = 0% disease present) | 0 (0 = 0% disease present) | 0 (0 = 0% disease present) | 0 (0 = 0% disease present) | 0 (0 = 0% disease present) | 90 (90 and 94 = 60.1-100% disease present)
COC=C(C(=O)OC)c1ccccc1COC(=O)N(C)c1ccc(F)cc1F [24 (2)] | 0 (0 = 0% disease present) | 0 (0 = 0% disease present) | 0 (0 = 0% disease present) | 0 (0 = 0% disease present) | 0 (0 = 0% disease present) | 0 (0 = 0% disease present) | 0 (0 = 0% disease present)
COC=C(C(=O)OC)c1ccccc1COC(=O)Nc1ccc(OC)nc1 [32 (1)] | 30 (30 = 20.1-30% disease present) | 20 (20 and 24 = 10.1-20% disease present) | 0 (0 = 0% disease present) | 60 (60 = 30.1-60% disease present) | 90 (90 and 94 = 60.1-100% disease present) | 30 (30 = 20.1-30% disease present) | 90 (90 and 94 = 60.1-100% disease present)
COC=C(C(=O)OC)c1ccccc1OC(=O)Nc1ccccc1 [5 (17)] | 60 (60 = 30.1-60% disease present) | 60 (60 = 30.1-60% disease present) | 0 (0 = 0% disease present) | 1 (1 = 0.1-1% disease present) | 5 (5 = 3.1-5% disease present) | 60 (60 = 30.1-60% disease present) | 90 (90 and 94 = 60.1-100% disease present)
